Where a name gives a salt, the structure may show the parent alone.
System: Acinetobacter baumannii ATCC17961
Assay: Antimicrobial susceptibility testing: 90% growth inhibitory concentration (IC90) determination
Assay type: cell-based
Conditions: Acinetobacter baumannii, ATCC17961, 16 h, 90% growth inhibitory concentration, Acinetobacter baumannii ATCC17961, Iso-Sensitest broth, OD 600 nm over 16 h; read-out: ATCC 17961 IC90
In short: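 A. baumannii ATCC17961 at ~5×10^5 CFU/ml in Iso-Sensitest broth exposed to 10-point twofold dilutions (e.g. 50–0.097 μM final), 35±2° C. OD600 read every 20 minutes over 16h; IC50 and IC90 derived from inhibition during logarithmic growth.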

Going from `COCCn1ncc(-c2ccc(-c3cnc(C(=O)Nc4ccc(C(=O)N5CCN(C(=O)[C@@H]6C[C@@H](O)C[N+]6(C)C)CC5)c(C)c4)n3C)c(F)c2F)c1C` [Example F14, 5-[2,3-difluoro-4-[1-(2-methoxyethyl)-5-methyl-pyrazol-4-yl]phenyl]-N-[4-[4-[(2S,4R)-4-hydroxy-1,1-dimethyl-pyrrolidin-1-ium-2-carbonyl]piperazine-1-carbonyl]-3-methyl-phenyl]-1-methyl-imidazole-2-carboxamide; 2,2,2-trifluoroacetate] to `CCc1c(-c2ccc(-c3cnc(C(=O)Nc4ccc(C(=O)N5CCN(C(=O)[C@@H]6C[C@@H](O)C[N+]6(C)C)CC5)c(Cl)c4)n3C)c(F)c2F)cnn1CCOC` [Example F20, N-[3-chloro-4-[4-[(2S,4R)-4-hydroxy-1,1-dimethyl-pyrrolidin-1-ium-2-carbonyl]piperazine-1-carbonyl]phenyl]-5-[4-[5-ethyl-1-(2-methoxyethyl)pyrazol-4-yl]-2,3-difluoro-phenyl]-1-methyl-imidazole-2-carboxamide; formate], the IC90 rises from 100 nM to 180 nM (1.8-fold).

Going from `Cc1n[nH]cc1-c1ccc(-c2cnc(C(=O)Nc3ccc(C(=O)N4CCN(C(=O)C[N+]5(C)CCCC5)CC4)c(Cl)c3)n2C)c(F)c1F` [Example D15, N-[3-chloro-4-[4-[2-(1-methylpyrrolidin-1-ium-1-yl)acetyl]piperazine-1-carbonyl]phenyl]-5-[2,3-difluoro-4-(3-methyl-1H-pyrazol-4-yl)phenyl]-1-methyl-imidazole-2-carboxamide; formate] to `Cn1c(-c2ccc(-c3ccc(N)cn3)c(F)c2F)cnc1C(=O)Nc1ccc(C(=O)N2CCN(C(=O)C3CC[N+](C)(C)CC3)CC2)c(Cl)c1` [Example F65, 5-[4-(5-amino-2-pyridyl)-2,3-difluoro-phenyl]-N-[3-chloro-4-[4-(1,1-dimethylpiperidin-1-ium-4-carbonyl)piperazine-1-carbonyl]phenyl]-1-methyl-imidazole-2-carboxamide; formate], the IC90 rises from 100 nM to 370 nM (3.7-fold).

Compared with `COCCn1ncc(-c2cc(C)c(-c3cnc(C(=O)Nc4ccc(C(=O)N5CCN(C(=O)C6CC[N+](CC(=O)O)(CC7CNC7)CC6)CC5)c(Cl)c4)n3C)cc2Cl)c1C` (stereo not drawn) [Example B40, 2-[1-(azetidin-3-ylmethyl)-4-[4-[2-chloro-4-[[5-[5-chloro-4-[1-(2-methoxyethyl)-5-methyl-pyrazol-4-yl]-2-methyl-phenyl]-1-methyl-imidazole-2-carbonyl]amino]benzoyl]piperazine-1-carbonyl]piperidin-1-ium-1-yl]acetic acid; formate], `COCCn1ncc(-c2ccc(-c3cnc(C(=O)Nc4ccc(C(=O)N5CCN(C(=O)C6CCNCC6)CC5)c(Cl)c4)n3C)c(C)c2F)c1C` [Example E5, N-[3-chloro-4-[4-(piperidine-4-carbonyl)piperazine-1-carbonyl]phenyl]-5-[3-fluoro-4-[1-(2-methoxyethyl)-5-methyl-pyrazol-4-yl]-2-methyl-phenyl]-1-methyl-imidazole-2-carboxamide; formic acid] is 10-fold lower in IC90: 1800 nM for the first, 180 nM for the second.

Compared with `Cn1c(-c2ccc(-c3cn(CCOC(F)F)nc3C(F)(F)F)c(F)c2F)cnc1C(=O)Nc1ccc(C(=O)N2CCN(C(=O)C3CC[N+](C)(C)CC3)CC2)c(Cl)c1` [Example F6, N-[3-chloro-4-[4-(1,1-dimethylpiperidin-1-ium-4-carbonyl)piperazine-1-carbonyl]phenyl]-5-[4-[1-[2-(difluoromethoxy)ethyl]-3-(trifluoro-methyl)pyrazol-4-yl]-2,3-difluoro-phenyl]-1-methyl-imidazole-2-carboxamide; formate], `Cc1nn(CC(=O)Nc2ccccn2)cc1-c1ccc(-c2cnc(C(=O)Nc3ccc(C(=O)N4CCN(C(=O)C5CC[N+](C)(C)CC5)CC4)c(Cl)c3)n2C)c(F)c1F` [Example G14, N-[3-chloro-4-[4-(1,1-dimethylpiperidin-1-ium-4-carbonyl)piperazine-1-carbonyl]phenyl]-5-[2,3-difluoro-4-[3-methyl-1-[2-oxo-2-(2-pyridylamino)ethyl]pyrazol-4-yl]phenyl]-1-methyl-imidazole-2-carboxamide; formate] is 6.4-fold lower in IC90: 570 nM for the first, 89 nM for the second.

`COCCn1cc(-c2ccc(-c3cnc(C(=O)Nc4ccc(C(=O)N5CCN(C(=O)[C@@H]6CC(CO)C[N+]6(C)C)CC5)c(Cl)c4)n3C)c(F)c2F)c(C)n1` (stereo partly drawn) [Example A12, N-[3-chloro-4-[4-[(2S)-4-(hydroxymethyl)-1,1-dimethyl-pyrrolidin-1-ium-2-carbonyl]piperazine-1-carbonyl]phenyl]-5-[2,3-difluoro-4-[1-(2-methoxyethyl)-3-methyl-pyrazol-4-yl]phenyl]-1-methyl-imidazole-2-carboxamide; formate] and `COCCn1cc(-c2ccc(-c3cnc(C(=O)Nc4ccc(C(=O)N5CCN(C(=O)[C@@H]6C[C@H](O)C[N+]6(C)C)CC5)c(Cl)c4)n3C)c(F)c2F)c(C)n1` [Example D10, N-[3-chloro-4-[4-[(2S,4S)-4-hydroxy-1,1-dimethyl-pyrrolidin-1-ium-2-carbonyl]piperazine-1-carbonyl]phenyl]-5-[2,3-difluoro-4-[1-(2-methoxyethyl)-3-methyl-pyrazol-4-yl]phenyl]-1-methyl-imidazole-2-carboxamide; formate] are the same in IC90: 210 nM for the first, 210 nM for the second.

Going from `Cc1c(-c2ccc(-c3cnc(C(=O)Nc4ccc(C(=O)N5CCN(C(=O)C6CC[N+](C)(C)CC6)CC5)c(Cl)c4)n3C)c(F)c2F)cnn1CCNC(=O)c1ccccn1` [Example H1, N-[2-[4-[4-[2-[[3-chloro-4-[4-(1,1-dimethylpiperidin-1-ium-4-carbonyl)piperazine-1-carbonyl]phenyl]carbamoyl]-3-methyl-imidazol-4-yl]-2,3-difluoro-phenyl]-5-methyl-pyrazol-1-yl]ethyl]pyridine-2-carboxamide formate] to `CCc1nn(CCOC)cc1-c1ccc(-c2cnc(C(=O)Nc3ccc(C(=O)N4CCN(C(=O)CC5(O)CC[N+](C)(C)CC5)CC4)c(Cl)c3)n2C)c(F)c1F` [Example F24, N-[3-chloro-4-[4-[2-(4-hydroxy-1,1-dimethyl-piperidin-1-ium-4-yl)acetyl]piperazine-1-carbonyl]phenyl]-5-[4-[3-ethyl-1-(2-methoxyethyl)pyrazol-4-yl]-2,3-difluoro-phenyl]-1-methyl-imidazole-2-carboxamide; formate], the IC90 rises from 150 nM to 590 nM (3.9-fold).

Same assay, conditions: Acinetobacter baumannii, ATCC17961, 16 h, read-out: ATCC 17961 IC90

`COCCn1cc(-c2ccc(-c3cnc(C(=O)Nc4ccc(C(=O)N5CCN(C(=O)[C@H]6CC[N@@+](CC(=O)O)(CC7CNC7)CC6)CC5)c(Cl)c4)n3C)c(F)c2F)c(C)n1` [Example Q3, trans 2-[1-(azetidin-3-ylmethyl)-4-[4-[2-chloro-4-[[5-[2,3-difluoro-4-[1-(2-methoxyethyl)-3-methyl-pyrazol-4-yl]phenyl]-1-methyl-imidazole-2-carbonyl]amino]benzoyl]piperazine-1-carbonyl]piperidin-1-ium-1-yl]acetic acid; formate] and `COCCn1cc(-c2ccc(-c3cnc(C(=O)Nc4ccc(C(=O)N5CCN(C(=O)C6CC[N+](CC(=O)O)(CC7CNC7)CC6)CC5)c(Cl)c4)n3C)c(F)c2F)c(C)n1` (stereo not drawn) [Example B18, 2-[1-(azetidin-3-ylmethyl)-4-[4-[2-chloro-4-[[5-[2,3-difluoro-4-[1-(2-methoxyethyl)-3-methyl-pyrazol-4-yl]phenyl]-1-methyl-imidazole-2-carbonyl]amino]benzoyl]piperazine-1-carbonyl]piperidin-1-ium-1-yl]acetic acid; formic acid; formate] are within 1.5-fold of each other in IC90: 359 nM for the first, 430 nM for the second.

First: COCCn1ncc(-c2ccc(-c3cnc(C(=O)Nc4ccc(C(=O)N5CCN(C(=O)C6CCN(CC7C[N+](C)(C)C7)CC6)CC5)c(Cl)c4)n3C)c(F)c2F)c1C [Example B31, N-[3-chloro-4-[4-[1-[(1,1-dimethylazetidin-1-ium-3-yl)methyl]piperidine-4-carbonyl]piperazine-1-carbonyl]phenyl]-5-[2,3-difluoro-4-[1-(2-methoxyethyl)-5-methyl-pyrazol-4-yl]phenyl]-1-methyl-imidazole-2-carboxamide]
Second: COCCn1cc(-c2ccc(-c3cnc(C(=O)Nc4ccc(C(=O)N5CCN(C(=O)C6CC[N+](C)(CC(N)=O)CC6)CC5)c(Cl)c4)n3C)c(F)c2F)c(C)n1 (stereo not drawn) [Example B1, N-[4-[4-[1-(2-amino-2-oxo-ethyl)-1-methyl-piperidin-1-ium-4-carbonyl]piperazine-1-carbonyl]-3-chloro-phenyl]-5-[2,3-difluoro-4-[1-(2-methoxyethyl)-3-methyl-pyrazol-4-yl]phenyl]-1-methyl-imidazole-2-carboxamide; formate]
The IC90 of the first is 2.7-fold lower: 71 nM for the first, 190 nM for the second.

`COCCn1cc(-c2ccc(-c3cnc(C(=O)Nc4ccc(C(=O)N5CCN(C(=O)C[N+]6(C)CC[C@H](O)C6)CC5)c(Cl)c4)n3C)c(F)c2F)c(C)n1` (stereo partly drawn) [Example C9, N-[3-chloro-4-[4-[2-[(3S)-3-hydroxy-1-methyl-pyrrolidin-1-ium-1-yl]acetyl]piperazine-1-carbonyl]phenyl]-5-[2,3-difluoro-4-[1-(2-methoxyethyl)-3-methyl-pyrazol-4-yl]phenyl]-1-methyl-imidazole-2-carboxamide; formate] and `Cc1nn(CC(=O)NC23CC(C#N)(C2)C3)cc1-c1ccc(-c2cnc(C(=O)Nc3ccc(C(=O)N4CCN(C(=O)C5CC[N+](C)(C)CC5)CC4)c(Cl)c3)n2C)c(F)c1F` [Example G4, N-[3-chloro-4-[4-(1,1-dimethylpiperidin-1-ium-4-carbonyl)piperazine-1-carbonyl]phenyl]-5-[4-[1-[2-[(3-cyano-1-bicyclo[1.1.1]pentanyl)amino]-2-oxo-ethyl]-3-methyl-pyrazol-4-yl]-2,3-difluoro-phenyl]-1-methyl-imidazole-2-carboxamide; formate] are within 1.5-fold of each other in IC90: 260 nM for the first, 190 nM for the second.

— US12421211B2, “Heterocyclic compounds” (Hoffmann-La Roche Inc., priority 2021, dated 2025)
